For data set [1], the system named is Arterial blood pressure (ABP). In words: In vivo hypotensive activity: arterial blood pressure (ABP) in anesthetized guinea pig. The note with it: intravenous; for ABP ED20 (dose which reduces arterial blood pressure by 20%): anesthetized guinea pig, hypotensive activity; for Ratio ABP/ITP (hypotensive ED20/bronchodilating ED50): guinea pig, larger ratio = greater separation of bronchodilator activity and hypotensive side effect. As to the method:
(§1) The trachea of anesthetized guinea pig was cannulated and the ITP recorded on a polygraph under artificial ventilation. Arterial blood pressure (ABP; reflecting hypotensive activity) was also measured during the experiment. Either intravenous or intraduodenal routes of administration are used. […] The ratio of hypotensive ED20 /bronchodilating ED50 reflects an assessment of the separation of desirable bronchodilator activity from undesirable cardiovascular (hypotensive) effect in the compounds. The larger the ABP/ITP ratio, the greater separation of bronchodilator activity and hypotensive side effect.

The test system of data set [2] is intratracheal pressure (ITP) in the guinea pig. Description: In vivo bronchodilator activity: decrease in intratracheal pressure (ITP) in anesthetized guinea pig. The note with it: Cavia porcellus, intravenous, read-out: ITP ED50 (dose resulting in a 50% decrease in intratracheal pressure). The procedure: as §1
The conditions of data set [3]: prior art (U.S. Pat. No. 3,930,005), cited from earlier work.
Data set [4] concerns Tracheal chains of guinea pig. Description: In vitro bronchodilator activity, tracheal chains of guinea pig (Magnus method). The format is cell-based. The note with it: Cavia porcellus, relative to 0.1 mcg./ml. isoproterenol, read-out: EC50 (concentration producing a relaxation which is 50% of the maximum response to 0.1 mcg./ml. of isoproterenol). As to the method: Tracheal chains of guinea pig were prepared by the method of A. Akcasu, Arch. Int. Pharmcodyn. […] The response to each test compound was recorded by the Magnus method and expressed as a percentage of the maximum response obtained with 0.1 mcg./ml. of isoproterenol prior to each experiment.

In brackets after ≈: the same amount, converted by molar mass. Where two headings read alike, the source gives them in different places. A value given as a limit tells only on which side of the number the result lay.

As to `Cn1c(=O)c2[nH]cnc2n(C)c1=O` [Aminophylline, reference compound], the “ABP ED20 (dose which reduces arterial blood pressure by 20%)” value in data set [1] turned out to be 1.4 mg/kg.
Consider `Nc1ncnc2c1ncn2C1CCCCC1` [9-Cyclohexyl-9H-adenine, 9-cyclohexyl-9H-adenine], for which, in data set [2], the ED50 came out at 0.24 mg/kg. For the same compound, the “ABP ED20 (dose which reduces arterial blood pressure by 20%)” value in data set [1] was > 3 mg/kg. Also, the “Ratio ABP/ITP (hypotensive ED20/bronchodilating ED50)” value in data set [1] is recorded as > 1.2. For the same compound, the anti-inflammatory activity entry in data set [3] (listed as 9-cyclohexyl-9H-adenine) is “no activity or activity of no practical value”; in data set [3] (listed as drawing 2), “relatively inactive”. Moreover, the EC50 in data set [4] stood at 0.91 µg/mL (≈ 4.19 µM).
Regarding `CCCOc1nc(N)c2ncn(Cc3ccccc3)c2n1` [9-Benzyl-2-n-propoxy-9H-adenine], the ED50 in data set [2] is 0.83 mg/kg. Further, in data set [1], the “ABP ED20 (dose which reduces arterial blood pressure by 20%)” value was determined as 1.7 mg/kg and the “Ratio ABP/ITP (hypotensive ED20/bronchodilating ED50)” value came out at 2.0. Besides, in data set [4], the EC50 is 0.34 µg/mL (≈ 1.2 µM).

Source of the values: patent US4278675A, “Bronchodilating process” (Bristol-Myers Company, priority 1979, dated 1981).
